Source: publication PMC7285485, “Antifungal and Antibiofilm Activities and the Mechanism of Action of Repeating Lysine-Tryptophan Peptides against Candida albicans” (Microorganisms, 2020)
In brackets after ≈: the same amount, converted by molar mass. Like-named read-outs stand apart in the source and are kept apart here. Ends that are not written are not given here. Peptide text beside a SMILES is read from it.

How the values were obtained:
[1] = system: C. albicans (CCARM 14001); experiment: microbe, parasite or virus in culture; format: cell-based, Candida albicans; conditions: fluconazole-resistant strain CCARM 14001, 24 to 30 h, 28 °C, read-out: Minimum Inhibitory Concentrations
[2] = system: C. albicans (CCARM 140020); experiment: microbe, parasite or virus in culture; format: cell-based, Candida albicans; conditions: read-out: Minimum Inhibitory Concentrations
C. glabrata = experiment: microbe, parasite or virus in culture; format: cell-based, Candida glabrata; conditions: read-out: Minimum inhibitory concentration
Procedure: (§1) The fungal strains C. albicans (KCTC 7270), C. catenulate (7642), C. intermidia (7234), C. rugosa (7324), C. glabrata (7219) and C. melibiosica (KCTC 7631) were cultured at 28 °C in appropriate media. Fungal cells (final concentration 2 × 10^4 cells/ mL) in 50 μL of YPD media (dextrose 2%, peptone 1% and yeast extract 0.5%) were seeded in each well of a microtiter plate containing 50 μL of two-fold serially diluted peptides in phosphate buffered saline. After incubation for 24 to 30 h at 28 °C, the lowest concentration of the peptides inhibiting the growth of the fungi was microscopically determined to be the minimum inhibitory concentrations (MICs). The effect of salt concentration on the antifungal activity of the peptides was tested by determining the MICs in the presence of NaCl and MgCl2. Fixed concentrations of NaCl (50, 100 and 150 mM) or MgCl2 (1, 2 and 5 mM) were added to the sodium phosphate buffer (pH 7.2). The effect of pH on the antifungal activity of the peptides was tested by determining peptide MICs in the presence of sodium phosphate buffer at a variety of pH values.

[3] = system: C. albicans (CCARM 14007); experiment: microbe, parasite or virus in culture; format: cell-based, Candida albicans; conditions: read-out: Minimum Inhibitory Concentrations
red blood cells = conditions: ref [35], cited from earlier work; for Hemolysis: red blood cells, 200 µM peptide
Text: Furthermore, it maintained its antifungal activity in physiological salt concentrations and at low pH values.

C. catenulate = experiment: microbe, parasite or virus in culture; format: cell-based, Candida catenulate; conditions: read-out: Minimum inhibitory concentration
Procedure: as §1

C. melibiosica = experiment: microbe, parasite or virus in culture; format: cell-based, Candida melibiosica; conditions: read-out: Minimum inhibitory concentration
Procedure: as §1

C. intermedia = experiment: microbe, parasite or virus in culture; format: cell-based, Candida intermedia; conditions: read-out: Minimum inhibitory concentration
Procedure: as §1

C. rugosa = experiment: microbe, parasite or virus in culture; format: cell-based, Candida rugosa; conditions: read-out: Minimum inhibitory concentration
Procedure: as §1

[4] = system: RNA obtained from C. albicans; experiment: RNA gel retardation assay; format: binding, Candida albicans; conditions: Supplementary Figure S2
Procedure: Briefly, RNA was extracted from C. albicans using the TRI reagent (Molecular Research Center, Cincinnati, OH, USA) according to the manufacturer’s instructions. Purified RNA was collected and resuspended in RNAse-free water. Then, the yeast RNA (10 µg) was mixed with peptide at different concentrations, 2.5–30 µg in 15 µL of 10 mM Tris, 1 mM EDTA buffer (pH 8.0). After 10 min incubation at room temperature, the solution was subjected to electrophoresis on a 1% agarose gel in Tris Borate EDTA (TBE) buffer. Gel retardation was visualized under UV illumination using a Bio-Rad Gel Documentation system.

C. albicans (KCTC 7270) = experiment: microbe, parasite or virus in culture; format: cell-based, Candida albicans; conditions: YPD/PBS, 24 to 30 h, 28 °C, read-out: Minimum Inhibitory Concentrations
Procedure: as §1

[5] = system: HaCaT (human keratinocyte) cells; experiment: Cytotoxicity, MTT assay; format: cell-based; conditions: 24 h
Procedure: We examined the cytotoxic effects of the peptides using HaCaT (human keratinocyte) cells, which were cultured in Dulbecco’s modified Eagle medium (DMEM) supplemented with antibiotics (100 U/mL penicillin, 100 µg/mL streptomycin) and 10% fetal calf serum at 37 °C in a humidified chamber with atmosphere containing 5% CO2. To measure viable cells and growth inhibition, an MTT colorimetric assay was used. A total of 4 × 10^3 cells was seeded per well into a 96-well plate incubated at 37 °C for 24 h. The next day, cells from plates were treated with various concentrations of the tested peptides. After 24 h incubation at 37 °C, MTT (10 μL) was added at a concentration of 5 mg/mL to each well. The culture supernatants were discarded after a further 4 h, and the remaining precipitate was dissolved by the addition of 100 μL of DMSO into the wells. Absorbance was then measured at a wavelength of 570 nm using an EL800 reader (Bio-Tek instruments, Inc., Winooski, VT, USA).

C. albicans [6] = experiment: SYTOX Green membrane permeabilization; format: cell-based, Candida albicans; conditions: 2 × 10^7 cells/mL, 1 µM SYTOX Green, followed for 120 min
Procedure: Membrane permeabilization of C. albicans was studied using the fluorescent dye SYTOX Green (Molecular Probes, Eugene, OR, USA). Fungal cells were grown to mid-logarithmic growth phase then centrifuged, washed and resuspended in PBS. Cells were suspended in PBS (2 × 10^7 cells/mL) and incubated with 1 µM SYTOX Green for 15 min in the dark prior to the influx assay. At 2–3 min after initiating data collection, 1/2× or 1× MIC peptides were added to the cell suspensions. Due to the binding of the dye to intracellular DNA, the increases in SYTOX Green fluorescence was measured for 120 min (excitation and emission wavelengths were 485 nm and 520 nm, respectively). Lysis of the cells in Triton X-100 (0.1%) or melittin gave maximum fluorescence.

[7] = Calcein leakage from eukaryotic membrane mimetic liposomes; conditions: 2.5 μM lipid, peptide 0.0–0.25 μΜ, 25 min, 25 °C; 100% = 0.1% Triton X-100
Procedure: (§2) Calcein-entrapped LUVs composed of PE–PC–PI–ergosterol (5:4:1:2, w/w/w/w) or PC–CH–SM (1:1:1, w/w/w) were prepared by mixing the dried lipid in buffer solution (containing 70 mM calcein, PBS, pH 7.4). The suspension was freeze-thawed in liquid nitrogen for nine cycles and then extruded through two stacked […] pore-size polycarbonate filters for 16 times using an Avanti Mini-Extruder (Avanti Polar Lipids Inc., Alabaster, AL, USA). Vesicles containing entrapped calcein were separated from free calcein by gel filtration chromatography on a Sephadex G-50 column. Entrapped LUVs in a suspension containing 2.5 μM lipids were then incubated with various concentrations of the peptide (0.0–0.25 μΜ) for 25 min. The release of calcein fluorescence was followed using a spectrofluorometer (Perkin-Elmer LS55, Mid Glamorgan, UK) with appropriate wavelengths (excitation, 480 nm; and emission, 520 nm). […] Spontaneous leakage was determined to be negligible on this timescale. […] The percentage of calcein release was calculated according to the following equation [41]:Release (%) = 100 × (F − Fo)/(Ft − Fo) (Ex. 480 nm and Em. 520 nm)(1) where F represent the fluorescence intensity before the addition of the detergent, Ft represents the fluorescence intensity after the addition of the detergent and Fo represents the fluorescence of the intact vesicles.

[8] = Calcein leakage from fungal membrane mimetic liposomes; conditions: 2.5 μM lipid, peptide 0.0–0.25 μΜ, 25 min, 25 °C; 100% = 0.1% Triton X-100; highest P/L ratio tested
Procedure: as §2

C. albicans [9] = experiment: Fluorescence microscopy of PI cell permeabilization; format: cell-based, Candida albicans; conditions: 8 μM KW4 or 4 μM melittin, 10, 20 and 30 min, 28 °C
Procedure: The cell permeability was monitored using the DNA-staining fluorescent probe PI as previously described. For this experiment, C. albicans cells were grown in YPD broth with shaking at 200 rpm overnight at 28 °C. Cells were harvested by centrifugation (4000 rpm for 10 min), washed and suspended in PBS to yield 2 × 10^6 cells/mL; 100 μL of C. albicans suspensions (2 × 10^6 cells/mL) were incubated with 5 μL from respective peptide aqueous stock solutions to yield a final peptide concentration of 8 μM KW4 peptide or 4 μM melittin (as a control peptide) for 10, 20 and 30 min at 28 °C. Next, PI was added to each sample at a final concentration of 1 μg/mL and the plate was incubated at 28 °C for 5 min. The effects of the peptides on C. albicans were visualized by the EVOS FL Auto 2 imaging system (Invitrogen, Waltham, MA, USA). Cells without added peptide served as a control.

Compound: KWKWKWKWKW-NH2 [KW5]
- MIC [1]: 8 µM
- MIC ([2]; CCARM 140020): 8 µM
- MIC (C. glabrata): 4 µM
- MIC ([3]; CCARM 14007): 16 µM
- Hemolysis (red blood cells): 71%
- MIC (C. catenulate): 8 µM
- MIC (C. melibiosica): 8 µM
- MIC (C. intermedia): 8 µM
- MIC (C. rugosa): 8 µM

Compound: indolicidin (ILPWKWPWWPWRR; ends and bridges not checked; UniProt P33046 131-143, looked up) [AMP which can act intracellularly]
- RNA band shift in gel retardation [4]: did cause a similar band shift

Compound: NCCCC[C@H](NC(=O)[C@H](Cc1c[nH]c2ccccc12)NC(=O)[C@@H](N)CCCCN)C(=O)N[C@@H](Cc1c[nH]c2ccccc12)C(N)=O [KW2, KWKW-NH2] (H-KWKW-NH2)
- MIC [1]: >128 µM
- MIC (C. glabrata): > 128 µM
- Hemolysis (red blood cells): 0%
- MIC (C. catenulate): > 128 µM
- MIC (C. melibiosica): > 128 µM
- MIC (C. intermedia): > 128 µM
- MIC (C. rugosa): > 128 µM

Compound: KWKWKW-NH2 [KW3, KWKWKW-NH2]
- MIC [1]: >128 µM
- MIC (C. glabrata): 32 µM
- Hemolysis (red blood cells): 0%
- MIC (C. catenulate): 16 µM
- MIC (C. melibiosica): 32 µM
- MIC (C. intermedia): 32 µM
- MIC (C. rugosa): 32 µM

Compound: KWKWKWKW-NH2 [KW4]
- MIC [1]: 32 µM
- MIC ([2]; CCARM 140020): 32 µM
- MIC (C. glabrata): 8 µM
- MIC ([3]; CCARM 14007): 32 µM
- Hemolysis (red blood cells): 8%
- Hemolytic activity (red blood cells): no hemolytic activity
- MIC (C. catenulate): 8 µM
- MIC (C. melibiosica): 8 µM
- MIC (C. intermedia): 8 µM
- MIC (C. rugosa): 8 µM

Compound: OC(Cn1cncn1)(Cn1cncn1)c1ccc(F)cc1F [Fluconazole, fluconazole, reference compound]
- MIC ([1]; Candida albicans, CCARM14001): > 128 µM
- MIC ([2]; Candida albicans, CCARM140020, fluconazole-resistant strain CCARM 140020, 24 to 30 h, 28 °C): > 128 µM
- MIC (C. albicans (KCTC 7270); Candida albicans, KCTC7270, 2 × 10^4 cells/mL): 16 µM
- MIC (C. glabrata; Nakaseomyces glabratus, C. glabrata): 8 µM
- MIC ([3]; Candida albicans, CCARM14007, fluconazole-resistant strain CCARM 14007, 24 to 30 h, 28 °C): > 128 µM
- MIC (C. catenulate; Candida, C. catenulate): 16 µM
- MIC (C. melibiosica; Helenozyma melibiosica, C. melibiosica): 16 µM
- MIC (C. intermedia; Sungouiella intermedia, C. intermedia): 16 µM
- MIC (C. rugosa; Diutina rugosa, C. rugosa): 16 µM

Compound: magainin II
- RNA band shift in gel retardation [4]: did not cause a band shift

Compound: CC[C@H](C)[C@H](NC(=O)CN)C(=O)NCC(=O)N[C@@H](C)C(=O)N[C@H](C(=O)N[C@@H](CC(C)C)C(=O)N[C@@H](CCCCN)C(=O)N[C@H](C(=O)N[C@@H](CC(C)C)C(=O)N[C@H](C(=O)N[C@H](C(=O)NCC(=O)N[C@@H](CC(C)C)C(=O)N1CCC[C@H]1C(=O)N[C@@H](C)C(=O)N[C@@H](CC(C)C)C(=O)N[C@H](C(=O)N[C@@H](CO)C(=O)N[C@@H](Cc1c[nH]c2ccccc12)C(=O)N[C@H](C(=O)N[C@@H](CCCCN)C(=O)N[C@@H](CCCNC(=N)N)C(=O)N[C@@H](CCCCN)C(=O)N[C@@H](CCCNC(=N)N)C(=O)N[C@@H](CCC(N)=O)C(=O)N[C@@H](CCC(N)=O)C(N)=O)[C@@H](C)CC)[C@@H](C)CC)[C@@H](C)O)[C@@H](C)O)C(C)C)C(C)C [Melittin, melittin, reference compound]
- MIC [1]: 16 µM (≈ 45.5 µg/mL)
- MIC ([2]; fluconazole-resistant strain CCARM 140020, 24 to 30 h, 28 °C): 8 µM (≈ 22.8 µg/mL)
- MIC (C. albicans (KCTC 7270); 2 × 10^4 cells/mL): 4 µM
- MIC (C. glabrata; C. glabrata): 4 µM
- MIC ([3]; fluconazole-resistant strain CCARM 14007, 24 to 30 h, 28 °C): 8 µM (≈ 22.8 µg/mL)
- Cytotoxicity against HaCaT cells ([5]; 12.5 μM): 100%
- Cell survival ([5]; HaCaT cells, 200 µM peptide): 0%
- Time to complete membrane permeabilization (SYTOX green) (C. albicans [6]): ≤ 35 min
- MIC (C. catenulate; C. catenulate): 8 µM
- MIC (C. melibiosica; C. melibiosica): 8 µM
- Calcein leakage from PC–CH–SM liposomes [7]: 90%
- MIC (C. intermedia; C. intermedia): 8 µM
- Calcein leakage from PE–PC–PI–ergosterol liposomes [8]: 80%
- MIC (C. rugosa; C. rugosa): 8 µM
- PI uptake seen by fluorescence microscopy (C. albicans [9]): allowed the uptake of PI
